One assay deals with T1, TamAA9A-CD (Talaromyces amestolkiae, UniProt A0A364LE17).
T1 construct: gene BHQ10_010049; native signal peptide (removed), no tag mentioned; secreted from Pichia pastoris X-33; theoretical 24 kDa, about 30 kDa glycosylated; copper-saturated; mature N-terminus HGYVQN from primer
Nature of the assay: spectrophotometric oxidation to coerulignone at […] nm, Michaelis-Menten fit. The class given is biochemical. Conditions: 2 mM H2O2 as co-substrate; copper-saturated enzyme; 100 mM sodium phosphate pH 6; substrate range 1.25-100 mM.

A further assay has as its target T2, TamAA9A-CBM (Talaromyces amestolkiae, UniProt A0A364LE17).
T2 construct: gene BHQ10_010049; native signal peptide (removed); secreted from Pichia pastoris X-33; theoretical 34 kDa, 75-100 kDa glycosylated; copper-saturated; with Beta-glucosidase BGL-2 (CBM1 domain only)
The description is as above. The class given is biochemical. Conditions: 2 mM H2O2 as co-substrate; copper-saturated enzyme; 100 mM sodium phosphate pH 6; substrate range 1.25-100 mM; printed kcat/Km (0.003) does not match printed kcat and Km.

T1 sequence (A0A364LE17 entry or part of it): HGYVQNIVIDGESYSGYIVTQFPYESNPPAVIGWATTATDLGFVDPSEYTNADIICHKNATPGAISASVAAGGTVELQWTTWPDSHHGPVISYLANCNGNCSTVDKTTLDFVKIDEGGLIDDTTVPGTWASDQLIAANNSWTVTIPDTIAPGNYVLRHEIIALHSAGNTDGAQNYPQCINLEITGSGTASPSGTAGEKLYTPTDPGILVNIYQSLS
T2 sequence (A0A364LE17 entry or part of it): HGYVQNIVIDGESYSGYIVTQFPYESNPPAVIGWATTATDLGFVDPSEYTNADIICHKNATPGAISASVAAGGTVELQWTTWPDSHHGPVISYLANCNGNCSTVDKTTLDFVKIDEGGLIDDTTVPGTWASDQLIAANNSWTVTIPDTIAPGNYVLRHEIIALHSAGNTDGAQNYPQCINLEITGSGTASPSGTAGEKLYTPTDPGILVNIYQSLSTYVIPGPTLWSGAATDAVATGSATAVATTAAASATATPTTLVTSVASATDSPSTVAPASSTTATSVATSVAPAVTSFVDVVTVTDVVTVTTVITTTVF

`COc1cccc(OC)c1O` [2,6-DMP, 2,6-dimethoxyphenol]: the Km at TamAA9A-CD turned out to be 87.7 ± 0.7 mM; on TamAA9A-CBM it was 85.68 ± 0.7 mM.

Broadly, the Km is the concentration of substrate that gives half-maximal velocity.

The values above are taken from article PMC8703934, “Lytic Polysaccharide Monooxygenase from Talaromyces amestolkiae with an Enigmatic Linker-like Region: The Role of This Enzyme on Cellulose Saccharification” (International Journal of Molecular Sciences, 2021).
